Like-named read-outs stand apart in the source and are kept apart here.
What was measured:
HTT mRNA = assay: RT-qPCR splicing assay, HTT canonical junction (CJ) and alternative junction (AJ) mRNA; format: cell-based, human; details: Homo sapiens; for AC50: increase in HTT alternative junction (AJ) mRNA, read-out: HTT AJ AC50
Outline: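 Splicing switches were read by TaqMan RT-qPCR on lysates, quantifying exon-exon junctions of the canonical and alternative-exon isoforms. Lysates came from K562 (GAPDH/GUSB reference) or A673 (PPIA reference) cells exposed 24 h to compound in 11 threefold steps from 10 uM, with DMSO ≤0.25%.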

[1] = tested on: K562 (human chronic myelogenous leukemia) cells; assay: Cell Titer Glo 2.0 cell viability assay; format: cell-based; details: Homo sapiens, K562, 72 h, K562 cells, 72 hours, Cell Titer Glo 2.0; read-out: K562 GI50
MYB = assay: HiBiT protein abundance assay, MYB HiBiT K562 cell line; format: cell-based, human; details: 24 hours, top dose 10 μM
Outline: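 Tagged-protein abundance measured by split-NanoBiT luminescence after lysis, following 24 h compound exposure (37° C; 10 μM top, 3-fold, 10 points; DMSO ≤0.25%) of HiBiT knock-in K562 cells. Percent response vs DMSO and unmodified-cell controls; 4-parameter logistic interpolation at 50% gave IC50.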

[2] = decrease in HTT canonical junction (CJ) mRNA, RT-qPCR, read-out: HTT CJ IC50
[3] = canonical junction qPCR panel, Table 5, read-out: HTT (decrease in CJ mRNA levels, IC50)
[4] = HiBiT K562 cell line, read-out: Effect on protein abundance, MYB (IC50 category)
[5] = Table 5 panel, canonical junction qPCR, compound concentration having 50% response in CJ decrease, read-out: HTT IC50 (decrease in CJ mRNA levels)

SMILES | IC50 (HTT mRNA; [2]) | AC50 (HTT mRNA; RT-qPCR) | IC50 (HTT mRNA; [3]) | GI50 [1] | IC50 (MYB; [4]) | IC50 (MYB; HiBiT lytic detection, modified K562 cells, read-out: Effect on protein abundance, MYB (IC50)) | IC50 (HTT mRNA; [5])
Cn1cc2cc(-c3ccc4c(=O)n(C5CCNCC5)ccc4n3)cc(F)c2n1 [Compound 1231] | 0.1 to 1 µM | 0.1 to 1 µM | 0.1 to 1 µM | 0.1 to 1 µM | 0.1 to 1 µM | – | –
Cc1c(O)c(-c2ncc3c(=O)n(C4CCC(N)CC4)ccc3n2)cc2cn(C)nc12 (stereo not drawn) [Compound 1300, 6-((1s,4s)-4-aminocyclohexyl)-2-(6-hydroxy-2,7-dimethyl-2H-indazol-5-yl)pyrido[4,3-d]pyrimidin-5(6H)-one] | 1 to 10 µM | 0.1 to 1 µM | 0.1 to 1 µM | 0.1 to 1 µM | 0.1 to 1 µM | – | –
Cn1cc2cc(-c3ccc4c(=O)n(C5CCNC6(CC6)C5)ncc4n3)c(O)cc2n1 (stereo not drawn) [Compound 1306] | 0.1 to 1 µM | 0.1 to 1 µM | 0.1 to 1 µM | 0.1 to 1 µM | – | 0.1 to 1 µM | –
Cc1c(O)c(-c2ccc3c(=O)n([C@@H]4CCNC4)ccc3n2)cc2cn(C)nc12 [Compound 1450, 2-(6-hydroxy-2,7-dimethyl-indazol-5-yl)-6-[(3R)-pyrrolidin-3-yl]-1,6-naphthyridin-5-one] | 1 to 10 µM | 1 to 10 µM | 1 to 10 µM | 0.1 to 1 µM | 0.1 to 1 µM | – | –
Cc1cn2cc(-c3cc(F)c4c(=O)n([C@@H]5CNC[C@H]5F)ccc4c3)cc(F)c2n1 [Compound 1456] | > 10 µM | > 10 µM | > 10 µM | 1 to 10 µM | 1 to 10 µM | – | –
Cc1c(O)c(-c2ncc3c(=O)n([C@@H]4C[C@H]5CC[C@@H](C4)N5)ccc3n2)cc2cn(C)nc12 [Compound 1429, 6-[(1S,5R)-8-azabicyclo[3.2.1]octan-3-yl]-2-(6-hydroxy-2,7-dimethyl-indazol-5-yl)pyrido[4,3-d]pyrimidin-5-one] | 0.1 to 1 µM | 0.1 to 1 µM | 0.1 to 1 µM | 0.1 to 1 µM | < 0.1 µM | – | –
Cc1cn2cc(-c3ncc4c(=O)n([C@@H]5CCNC6(CC6)C5)ccc4n3)cc(F)c2n1 [Compound 1457, 6-[(7R)-4-azaspiro[2.5]octan-7-yl]-2-(8-fluoro-2-methyl-imidazo[1,2-a]pyridin-6-yl)pyrido[4,3-d]pyrimidin-5-one] | 1 to 10 µM | 0.1 to 1 µM | 0.1 to 1 µM | 0.1 to 1 µM | 0.1 to 1 µM | – | –
Cn1cc2ccc(-n3cnc4cc(NC5CCNCC5)ccc4c3=O)cc2n1 [Compound 204] | > 10 µM | > 10 µM | – | > 10 µM | > 10 µM | – | > 10 µM
Cc1cn(C2CCNCC2)c(=O)c2ccc(-c3cc4cn(C)nc4c(F)c3O)nc12 [Compound 1285] | < 0.1 µM | < 0.1 µM | < 0.1 µM | < 0.1 µM | < 0.1 µM | – | –
Cc1cn2nc(-c3ccc4c(c3F)CCN(C3CCNCC3)C4=O)cc(C)c2n1 [Compound 188] | 1 to 10 µM | 1 to 10 µM | – | 1 to 10 µM | 0.1 to 1 µM | – | 1 to 10 µM
Cc1cc(-c2cc3ccn(C4CCN(C5COC5)CC4)c(=O)c3cn2)cc2cn(C)nc12 [Compound 1209, 6-(2,7-dimethyl-2H-indazol-5-yl)-2-(1-(oxetan-3-yl)piperidin-4-yl)-2,7-naphthyridin-1(2H)-one-1] | 0.1 to 1 µM | 0.1 to 1 µM | – | 0.1 to 1 µM | 0.1 to 1 µM | – | 0.1 to 1 µM
Cn1cc2cc(-c3ccc4c(=O)n([C@@H]5CCNC6(CC6)C5)ccc4n3)c(O)cc2n1 [Compound 1246] | 0.1 to 1 µM | 0.1 to 1 µM | 0.1 to 1 µM | 0.1 to 1 µM | 0.1 to 1 µM | – | –
Cc1c(O)c(-c2ncc3c(=O)n([C@@H]4CCN[C@H](C)C4)ccc3n2)cc2cn(C)nc12 [Compound 1434, 2-(6-hydroxy-2,7-dimethyl-indazol-5-yl)-6-(2-methyl-4-piperidyl)pyrido[4,3-d]pyrimidin-5-one] | 1 to 10 µM | 0.1 to 1 µM | 0.1 to 1 µM | 0.1 to 1 µM | 0.1 to 1 µM | – | –
CCN1CCC(n2ccc3cc(-c4cc(C)c5nn(C)cc5c4)ncc3c2=O)CC1 [Compound 1207, 6-(2,7-dimethyl-2H-indazol-5-yl)-2-(1-ethylpiperidin-4-yl)-2,7-naphthyridin-1(2H)-one] | 1 to 10 µM | 1 to 10 µM | – | 1 to 10 µM | 1 to 10 µM | – | 1 to 10 µM
Cc1c(O)c(-c2ncc3c(=O)n(C4CCN(C)CC4)ccc3n2)cc2cn(C)nc12 [Compound 1304] | 1 to 10 µM | 0.1 to 1 µM | 0.1 to 1 µM | 0.1 to 1 µM | 0.1 to 1 µM | – | –
